Source: US11331368B2, “Angiotensin receptor agonists and uses thereof” (Monash University, priority 2017, dated 2022)
Square brackets hold non-standard residues; d marks the D form. Primed or numbered codes have the meaning given here. Ends that are not written are not given here. * marks the point of attachment. Cholyl = C[C@H](CCC(=O)*)[C@H]1CC[C@H]2[C@@H]3[C@H](O)C[C@@H]4C[C@H](O)CC[C@]4(C)[C@H]3C[C@H](O)[C@]12C; βPhe = beta-form phenylalanine; βArg = beta-form arginine; βTyr = beta-form tyrosine; βPro = beta-form proline; βVal″ = beta-form valine

T1: human AT1R (Homo sapiens, UniProt P30556)
T1 construct: expressed in transfected cells
T1 sequence (P30556 1-359): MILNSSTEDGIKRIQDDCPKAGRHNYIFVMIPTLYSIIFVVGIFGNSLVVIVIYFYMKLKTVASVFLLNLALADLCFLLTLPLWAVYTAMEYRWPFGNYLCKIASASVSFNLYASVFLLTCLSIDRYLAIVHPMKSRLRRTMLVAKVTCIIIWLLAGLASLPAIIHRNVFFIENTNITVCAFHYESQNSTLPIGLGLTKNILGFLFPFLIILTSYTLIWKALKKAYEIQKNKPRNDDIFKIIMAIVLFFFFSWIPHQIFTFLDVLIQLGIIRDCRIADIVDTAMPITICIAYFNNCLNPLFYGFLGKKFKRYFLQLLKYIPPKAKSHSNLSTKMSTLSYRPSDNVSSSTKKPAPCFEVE

T2: human AT2R (Homo sapiens, UniProt P50052)
T2 construct: expressed in transfected cells
T2 sequence (P50052 1-363): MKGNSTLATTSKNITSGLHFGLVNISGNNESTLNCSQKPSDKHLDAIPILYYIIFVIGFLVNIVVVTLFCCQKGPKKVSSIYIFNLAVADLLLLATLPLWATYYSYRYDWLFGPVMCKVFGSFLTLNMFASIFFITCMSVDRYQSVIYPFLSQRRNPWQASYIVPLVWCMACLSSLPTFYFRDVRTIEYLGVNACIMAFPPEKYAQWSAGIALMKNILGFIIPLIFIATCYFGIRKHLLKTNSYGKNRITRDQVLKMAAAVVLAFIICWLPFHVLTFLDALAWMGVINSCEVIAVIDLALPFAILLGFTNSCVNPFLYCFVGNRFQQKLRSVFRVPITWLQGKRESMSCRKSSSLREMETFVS

T3: human Angiotensin II Receptor Type 2 (AT2R) (human, UniProt P50052 1-363)
T3 construct: whole, on cells; also endogenous on human cardiac fibroblasts (functional entries); also called AT2 receptor
T3 sequence (looked up): T2 sequence (P50052 1-363)

B1: βArg-Ala-8-Ang II (peptide)
peptide: D[βArg]VYIHPA-OH
notes: synthetic peptide; also called Asp-β-Arg-Val-Tyr-Ile-His-Pro-Ala
B2: Cholic Acid-βPro-Ang III (peptide)
peptide: Cholyl-RVYIH[βPro]F-OH
notes: synthetic peptide; also called Cholate-Arg-Val-Tyr-Ile-His-β-Pro-Phe
B3: βPhe-Ang III (peptide)
peptide: RVYIHP[βPhe]-OH
notes: synthetic peptide; also called Arg-Val-Tyr-Ile-His-Pro-β-Phe
B4: Nic-βPro-Ang III (peptide)
peptide: nicotinamido-RVYIH[βPro]F-OH
notes: synthetic peptide; also called Nicotinamido-Arg-Val-Tyr-Ile-His-β-Pro-Phe
B5: D-Arg-Ang III (peptide)
peptide: [dR]VYIHPF-OH
notes: synthetic peptide; also called D-Arg-Val-Tyr-Ile-His-Pro-Phe
B6: βVal-Ala-8-Ang III (peptide)
peptide: R[βVal″]YIHPA-OH
notes: synthetic peptide; also called Arg-β-Val-Tyr-Ile-His-Pro-Ala
B7: βTyr-Ang III (peptide)
peptide: RV[βTyr]IHPF-OH
notes: synthetic peptide; also called Arg-Val-β-Tyr-Ile-His-Pro-Phe
B8: βArg-Ala-8-Ang III (peptide)
peptide: [βArg]VYIHPA-OH
notes: synthetic peptide; also called β-Arg-Val-Tyr-Ile-His-Pro-Ala
B9: NAc-βPro-Trp-8-Ang III (peptide)
peptide: Ac-RVYIH[βPro]W-OH
notes: synthetic peptide; also called N-Ac-β-Pro^7-Trp^8-Ang III; N-Ac-Pro^7-Trp^8-Ang III
B10: βTyr-Trp-8-Ang III (peptide)
peptide: RV[βTyr]IHPW-OH
notes: synthetic peptide; also called β-Tyr^4-Trp^8-Ang III; β-Tyro-Trp^8-Ang III

How the values were obtained:
human AT1R = biological target: T1, human AT1R; test: Competition radioligand binding (125I-Sar1-Ile8-AngII) in AT1R-transfected HEK-293 cells
human AT2R = biological target: T2, human AT2R; test: Competition radioligand binding (125I-Sar1-Ile8-AngII) in AT2R-transfected HEK-293 cells; conditions: for Fold AT2R selectivity: AT2R over AT1R, Table 3
Method: This will lead to the generation of IC50 values that determine the relative ability of test compounds to interact with both Angiotensin receptors.
Cells were grown to approximately 80% confluence before being re-plated into 48 well plates at 1×10^5 cells/well and grown for 48 hours at 37° C. for a whole cell competition binding assay. [125I]-Sar1Ile8Ang II at 50,000 cpm, incubated for 45 minutes at 37° C., in the absence or presence of unlabeled ligands, prepared in binding buffer (DMEM, 0.1% BSA), were used in the competition assays at concentrations ranging from 1 μM to 10 μM. For each experiment, each ligand concentration was tested in duplicate or triplicate, and each experiment was repeated at least 3 separate times. […] The ability of each ligand to inhibit specific binding of [125I]-Sar1Ile8Ang II was measured on a gamma counter with all counts corrected for NSB.

[1] = system: male FVB/N mice on high salt diet, heart; test: High salt (5%) diet intervention model, heart; format: in vivo, mouse; conditions: for MMP-13 protein expression in heart (Western blot) / macrophage infiltration/expression in heart (F4/80) / expression of P-IκBα (marker for NFκB activation) in heart: weeks 5-8, captopril 3 mg/kg/day; for MMP-13 protein expression in heart (Western blot) / macrophage infiltration/expression in heart (F4/80): peptide 75 pmol/kg/min s.c.; for MMP-13 protein expression in heart (Western blot) / macrophage infiltration/expression in heart (F4/80) / expression of P-IκBα (marker for NFκB activation) in heart / cardiac fibrosis (picrosirius red): Cand 2 mg/kg/day; for expression of P-IκBα (marker for NFκB activation) in heart: peptides 75 pmol/kg/min s.c.; for cardiac fibrosis (picrosirius red): weeks 5-8 of high salt diet, peptides 75 pmol/kg/min s.c. mini-pump, captopril 3 mg/kg/day in drinking water
Method: (§1) C) In the intervention (or reversal) model, male FVB/N mice were treated with selective AT2Rs agonists after the establishment of cardiovascular disease using a high salt diet, in order to reverse cardiovascular pathologies. In some experiments, the ACE inhibitor captopril (dose) or the ARB candesartan cilexetil (dose) were given for 4 weeks in drinking water. Organs examined included heart, kidney and liver and these were compared to either untreated mice or high salt-fed mice that were treated with saline.
A high-salt diet (5% salt) model is a clinically relevant and disease-reversal model which can replicate the high salt intake by humans which is currently a growing problem in the developed countries. High salt intake induces changes in the cardiovascular system and induces remodelling and fibrosis in the heart, kidney and liver.
(§2) Mice were placed on either a normal rodent diet (0.35% NaCl) which acted as control or a high salt diet (5% sodium in food chow) for 8 weeks. After 4 weeks, mice were also treated subcutaneously (via osmotic mini-pump) with either saline or an AT2R agonist (75 pmol/kg/min subcutaneously) for 4 weeks. Mice continued to be fed a high salt diet whilst receiving these treatments.
All mice which underwent surgery were anaesthetized with Isoflurane (Isorrane) (5% induction and 2.5% maintenance) and an incision made in the midscapular region through which osmotic minipumps (Alzet model 2004, Alza Corp) were inserted for subcutaneous drug administration. The incision area was sutured with 6/0 DY silk (Dynek Pty Ltd) and antibiotic powder applied (Cicatrin, Pfizer) followed by intramuscular injection of the analgesic Cartrophen (0.1 ml of a 1.5 mg/ml stock solution; Biopharm Australia). Systolic blood pressure (SBP) was measured using non-invasive tail-cuff plethysmography apparatus (MC4000 Blood Pressure Analysis System, Hatteras Instrument Inc) before drug treatment (week 0), and then fortnightly. At the end of the 8 week treatment period mice were weighed before being killed by overdose of isoflurane inhalation and cervical dislocation.
To measure collagen deposition, frozen sections of heart, kidney or aorta (all 5 μm thickness) were air dried for 10 minutes and were brought through 3 times xylene (2 minutes each), and 3 times absolute alcohol washes before being rinsed in tap H2O for 30 seconds. Staining with an optimal concentration of picrosirius red (in this instance 0.05% picrosirius red diluted in saturated picric acid) was performed and left for an hour. Sections were then rinsed in water and differentiated in 0.01M HCl for 2 minutes, followed by dehydration via 3 times absolute alcohol washes. Then, slides were brought through 3 times xylene washes before being cover slipped according to standard histological techniques using DPX as the mounting medium. Images were taken under ×20 magnification, using bright field (Olympus, BX51) and circularized polarized light microscopy (DM IRB, Leica) while percentage of positive interstitial collagen staining per total field of view was quantified using ImageJ 1.46 software (Java, NIH), and averaged out from a total of eight views as the final percentage collagen content in a particular animal.
Immunostaining was performed on 5 μm thick transverse frozen heart sections. These sections were air dried and fixed in ice-cold acetone for approximately 15 minutes before washing with 0.01M PBS buffer (3×10 minutes). Sections were then incubated with 10% goat serum in 0.01M PBS for 30 minutes to reduce non-specific binding. If the primary antibody is raised in goat, this pre-blocked medium is substituted with 5% BSA in PBS and Triton-X. Next, blocking buffers were removed and the primary antibody to respective markers were applied overnight at room temperature based on the following dilution and origin of the antibodies: α-SMA (1:500, Abcam), Vimentin (1:500, Santa Cruz), P-IκBα (1:200, Cell Signalling), F4/80 macrophage (1:100, Serotec). […]

[2] = system: male FVB/N mice on high salt diet, liver; test: High salt (5%) diet intervention model, liver; format: in vivo, mouse; conditions: weeks 5-8; peptides 75 pmol/kg/min s.c.; Cand 2 mg/kg/day, captopril 3 mg/kg/day
Method: as §1, §2
Liver sections used either picrosirius red staining or Masson's trichome staining as described above. Higher concentrations of picrosirius red were often used under polarized light microscopy. The liver was removed and sectioned with half of the liver placed in 10% formalin and the rest frozen in liquid nitrogen before being stored in ˜80° C. freezer for future use. Formalin fixed, paraffin embedded livers were sectioned at thickness of 4 μm and were stained with Masson's trichrome according to standard procedures for analysis of liver fibrosis. […] Sections were re-fixed in Bouin's solution for 1 hour at 56° C. to improve staining quality then rinsed in running tap water for 5-10 minutes to remove yellow colour. Following this, sections were stained in Weigert's iron hematoxylin working solution for 10 minutes. Rinsed in running warm tap water for 10 minutes. Washed in distilled water. Stained in Biebrich scarlet-acid fuchsin solution for 10-15 minutes.
Washed in distilled water. Differentiated in phosphomolybdic-phosphotungstic acid solution for 10-15 minutes or until collagen was no longer red. Sections were transferred directly (without rinse) to aniline blue solution and stained for 5-10 minutes. Rinsed briefly in distilled water and differentiated in 1% acetic acid solution for 2-5 minutes. Washed in distilled water. […] Mounted with DPX mounting medium. Quantification of liver fibrosis was performed using images captured with the Aperio scanner (Monash Histology Platform, Monash University), with ×5 magnification. Each liver section had 5 different fields of view photographed at this magnification. Percentage of interstitial and perivascular collagen was analysed and quantified using ImageJ 1.48 software (Java, NIH), and the percentage from 5 random fields of view were averaged for final percentage of collagen for that particular animal. All analysis of collagen expression was conducted in a blinded fashion.

[3] = biological target: T3, human Angiotensin II Receptor Type 2 …; test: competition radioligand binding on HEK-293 cells with AT2R; competitor [125I]-Sar1Ile8Ang II
Method: For each experiment, each ligand concentration was tested in duplicate or triplicate, and each experiment was repeated at least 3 separate times.

[4] = PD123319 1 mg/kg/day s.c. with β-Pro7-Ang III or D-Arg2-β-Pro7-Ang III

Molecule | Fold AT2R selectivity (human AT2R) | IC50 [3] [nM] | other results
CC[C@H](C)[C@H](NC(=O)C[C@H](Cc1ccc(O)cc1)NC(=O)[C@@H](NC(=O)[C@@H](N)CCCNC(=N)N)C(C)C)C(=O)N[C@@H](Cc1c[nH]cn1)C(=O)N1CCC[C@H]1C(=O)N[C@@H](Cc1c[nH]c2ccccc12)C(=O)O [βTyr-Trp-8-Ang III, Arg-Val-β-Tyr-Ile-His-Pro-Trp] | – | – | binding at AT1R (displacement of 125I-Sar1-Ile8-AngII), in words (human AT1R): bind poorly; binding at AT2R (displacement of 125I-Sar1-Ile8-AngII), in words (human AT2R; transfected HEK-293 cells): high affinity
Arg-Val-Tyr-Ile-His-β-Pro-Ala [βPro-Ala-8-Ang III] | 200 fold | – | –
Tetrazole-CONH-Arg-Val-Tyr-Ile-His-β-Pro-Trp [Tet-βPro-Trp-8-Ang III] | >275,000 fold | – | –
CCOc1nc2cccc(C(=O)OC(C)OC(=O)OC3CCCCC3)c2n1Cc1ccc(-c2ccccc2-c2nnn[nH]2)cc1 (centres unmarked) [candesartan cilexetil, reference compound] | – | – | MMP-13 protein expression in heart (Western blot) [1]: Neither captopril nor Cand altered MMP-13 levels; macrophage infiltration/expression in heart (F4/80) [1]: reversed by all agents; expression of P-IκBα (marker for NFκB activation) in heart [1]: reversed only by β-Ile^5-Ang II; cardiac fibrosis (picrosirius red) [1]: did not significantly reduce fibrosis
Cc1cc(Cn2cnc3c2C[C@@H](C(=O)O)N(C(=O)C(c2ccccc2)c2ccccc2)C3)ccc1N(C)C [PD123319, reference compound] | – | – | effect of AT2R antagonist co-treatment on peptide anti-fibrotic effect (cardiac fibrosis, picrosirius red) [1, 4]: attenuated the anti-fibrotic effects of these peptides; effect of AT2R antagonist co-treatment on peptide inhibition of myofibroblast differentiation (α-SMA) [1, 4]: attenuated the inhibitory effects of these peptides
Tetrazole-CONH- Arg-Val-Tyr-Ile-His- β-Pro-Phe [Tet-βPro-Ang III] | >60,000 fold | – | –
CC[C@H](C)[C@H](NC(=O)[C@H](Cc1ccc(O)cc1)NC(=O)[C@@H](NC(=O)[C@H](N)CCCNC(=N)N)C(C)C)C(=O)N[C@@H](Cc1c[nH]cn1)C(=O)N1CCC[C@H]1C(=O)N[C@@H](Cc1ccccc1)C(=O)O [D-Arg-Ang III, D-Arg-Val-Tyr-Ile-His-Pro-Phe] | 400 fold | – | IC50 (human AT1R; 125I-Sar1-Ile8-AngII): > 10000 nM
Arg-Val-Tyr-β-Ile-His-Pro-Trp [βILe-Trp-8-Ang III] | >2500 fold | – | –
β-Arg-Val-Tyr-Ile-His-Pro-Trp [βArg-Trp-8-Ang III] | 1854 fold | – | –
Nicotinamido-Arg-Val-Tyr-Ile-His-β-Pro-Trp [Nic-βPro-Trp-8-Ang III] | >15,000 fold | – | –
C[C@H](CS)C(=O)N1CCC[C@H]1C(=O)O [captopril, reference compound] | – | – | MMP-13 protein expression in heart (Western blot) [1]: Neither captopril nor Cand altered MMP-13 levels; macrophage infiltration/expression in heart (F4/80) [1]: reversed by all agents; expression of P-IκBα (marker for NFκB activation) in heart [1]: reversed only by β-Ile^5-Ang II; cardiac fibrosis (picrosirius red) [1]: also reversed fibrosis; liver fibrosis (picrosirius red, polarized light) [2]: similarly inhibited the pro-fibrotic effects of high salt in the liver; liver steatosis (Oil Red O) [2]: significantly reduced excess lipid accumulation
B1 | – | 12.5 | –
B2 | – | 0.05 | –
B3 | – | 20.3 | –
B4 | – | 0.12 | –
B5 | – | 25 | –
B6 | – | 8.1 | –
B7 | – | 1.82 | –
B8 | – | 6.5 | –
B9 | – | 0.34 | –
B10 | – | 0.384 | –
